Data taken from patent publication US11312727B1, “Macrocyclic flu endonuclease inhibitors” (Janssen BioPharma, Inc., priority 2018, dated 2022).

How the values were obtained:
[1] = system: Influenza strain A549 A/WSN/33 (H1N1); experiment: microbe, parasite or virus in culture; type: cell-based; details: Influenza A virus, A549, 20 h, A549 cells, influenza A/WSN/33 (H1N1), 20 hours incubation; read-out: A549_A(H1N1) EC50
in vitro = details: human, CC50, uninfected A549 cells, CellTiter-Glo

SMILES | EC50 [1] [nM] | CC50 (in vitro) [nM]
O=C1c2c(O)c(=O)ccn2N2CN1[C@@H]1C[C@@H]1CCOc1cccc3c1[C@@H]2c1ccccc1SC3 (stereo in doubt) [Compound 166A, cis-(11a*RS,12a*RS,13S,20a*R)-15-hydroxy-6,11,11a,12,12a,20a-hexahydro-10H-7,8-(epiprop[1]en[1]yl[3]ylidene)-13,20-methanobenzo[6,7]thiepino[4,5-c]cyclopropa[j]pyrido[1,2-f][1]oxa[5,6,9]triazacyclotridecine-14,16-dione] | > 50 | > 100
O=C1c2c(O)c(=O)ccn2N2CN1CCC=CCc1ccccc1C2c1ccccc1 (centres unmarked) [Compound 1, 4-hydroxy-16-phenyl-7,8,11,16-tetrahydro-6,17-methanobenzo[k]pyrido[1,2-b][1,2,5]triazacyclotridecine-3,5-dione] | 43 | > 2000
O=C1c2c(O)c(=O)ccn2N2CN1CCCCCCc1ccccc1C2c1ccccc1 (centres unmarked) [Compound 2, 15-hydroxy-2-phenyl-12,13,14,16-tetrahydro-11H-1(1,3)-pyrido[2,1-f][1,2,4]triazina-3(1,2)-benzenacyclononaphane-14,16-dione] | 354 | > 20000
O=C1c2c(O)c(=O)ccn2N2CN1CCCCCc1ccccc1C2c1ccccc1 (centres unmarked) [Compound 4, 4-hydroxy-16-phenyl-7,8,9,10,11,16-hexahydro-6,17-methanobenzo[k]pyrido[1,2-b][1,2,5]triazacyclotridecine-3,5-dione] | 48 | > 4000
O=C1c2c(O)c(=O)ccn2N2CN1C/C=C\COc1ccccc1[C@H]2c1ccccc1 [Compound 5A, (18R,Z)-12-hydroxy-18-phenyl-6,9-dihydro-18H-10,17-methanobenzo[b]pyrido[1,2-f][1]oxa[5,6,9]triazacyclotridecine-11,13-dione] | 8 | > 2000
O=C1c2c(O)c(=O)ccn2N2CN1C/C=C\COc1ccccc1[C@@H]2c1ccccc1 [Compound 5B, (18S,Z)-12-hydroxy-18-phenyl-6,9-dihydro-18H-10,17-methanobenzo[b]pyrido[1,2-f][1]oxa[5,6,9]triazacyclotridecine-11,13-dione] | > 1000 | > 2000
O=C1c2c(O)c(=O)ccn2N2CN1C/C=C\COc1ccccc1C2c1ccccc1 (centres unmarked) [Compound 5] | 26 | > 2000
O=C1c2c(O)c(=O)ccn2N2CN1C/C=C/CCOc1cccc(c1)C2c1ccccc1 (centres unmarked) [Compound 6, (*E)-15-hydroxy-2-phenyl-12,13,14,16-tetrahydro-11H-4-oxa-1(1,3)-pyrido[2,1-f][1,2,4]triazina-3(1,3)-benzenacyclononaphan-7-ene-14,16-dione] | 6150 | > 20000
O=C1c2c(O)c(=O)ccn2N2CN1CCCCOc1ccccc1C2c1ccccc1 (centres unmarked) [Compound 8, 12-hydroxy-18-phenyl-6,7,8,9-tetrahydro-18H-10,17-methanobenzo[b]pyrido[1,2-f][1]oxa[5,6,9]triazacyclotridecine-11,13-dione] | 59 | > 2000
O=C1c2c(O)c(=O)ccn2N2CN1CCCCOc1ccccc1[C@H]2c1ccccc1 [Compound 8A, (18R)-12-hydroxy-18-phenyl-6,7,8,9-tetrahydro-18H-10,17-methanobenzo[b]pyrido[1,2-f][1]oxa[5,6,9]triazacyclotridecine-11,13-dione] | 13 | > 2000
O=C1c2c(O)c(=O)ccn2N2CN1CCCCOc1ccccc1[C@@H]2c1ccccc1 [Compound 8B, (18S)-12-hydroxy-18-phenyl-6,7,8,9-tetrahydro-18H-10,17-methanobenzo[b]pyrido[1,2-f][1]oxa[5,6,9]triazacyclotridecine-11,13-dione] | 4130 | > 2000
O=C1c2c(O)c(=O)ccn2N2CN1CCCCCOc1ccccc1C2c1ccccc1 (centres unmarked) [Compound 9, 15-hydroxy-2-phenyl-12,13,14,16-tetrahydro-11H-4-oxa-1(1,3)-pyrido[2,1-f][1,2,4]triazina-3(1,2)-benzenacyclononaphane-14,16-dione] | 453 | > 2000
O=C1c2c(O)c(=O)ccn2N2CN1CC/C=C/COc1ccccc1[C@@H]2c1ccccc1 [Compound 10A, (2S,E)-15-hydroxy-2-phenyl-12,13,14,16-tetrahydro-11H-4-oxa-1(1,3)-pyrido[2,1-f][1,2,4]triazina-3(1,2)-benzenacyclononaphan-6-ene-14,16-dione] | > 1000 | > 2000
O=C1c2c(O)c(=O)ccn2N2CN1CC/C=C/COc1ccccc1[C@H]2c1ccccc1 [Compound 10B, (2R,E)-15-hydroxy-2-phenyl-12,13,14,16-tetrahydro-11H-4-oxa-1(1,3)-pyrido[2,1-f][1,2,4]triazina-3(1,2)-benzenacyclononaphan-6-ene-14,16-dione] | 13 | > 2000
O=C1c2c(O)c(=O)ccn2N2CN1CCCCCCc1ccccc1C2c1ccccn1 (centres unmarked) [Compound 11, 15-hydroxy-2-(pyridin-2-yl)-12,13,14,16-tetrahydro-11H-1(1,3)-pyrido[2,1-f][1,2,4]triazina-3(1,2)-benzenacyclononaphane-14,16-dione] | 363 | > 2000
O=C1c2c(O)c(=O)ccn2N2CN1CCCCCc1ccccc1C2c1ccccn1 (centres unmarked) [Compound 12, 4-hydroxy-16-(pyridin-2-yl)-7,8,9,10,11,16-hexahydro-6,17-methanobenzo[k]pyrido[1,2-b][1,2,5]triazacyclotridecine-3,5-dione] | 86 | > 2000
O=C1c2c(O)c(=O)ccn2N2CN1CC/C=C/CCc1ccccc1C2c1ccccc1 (centres unmarked) [Compound 14, (*E)-15-hydroxy-2-phenyl-12,13,14,16-tetrahydro-11H-1(1,3)-pyrido[2,1-f][1,2,4]triazina-3(1,2)-benzenacyclononaphan-6-ene-14,16-dione] | 48 | > 4000
O=C1c2c(O)c(=O)ccn2N2CN1CCC/C=C\Cc1ccccc1C2c1ccccn1 (centres unmarked) [Compound 15, (Z)-15-hydroxy-2-(pyridin-2-yl)-12,13,14,16-tetrahydro-11H-1(1,3)-pyrido[2,1-f][1,2,4]triazina-3(1,2)-benzenacyclononaphan-5-ene-14,16-dione] | 635 | > 20000
O=C1c2c(O)c(=O)ccn2N2CN1C/C=C/COCc1ccccc1C2c1ccccc1 (centres unmarked) [Compound 17, (E)-15-hydroxy-2-phenyl-12,13,14,16-tetrahydro-11H-5-oxa-1(1,3)-pyrido[2,1-f][1,2,4]triazina-3(1,2)-benzenacyclononaphan-7-ene-14,16-dione] | 77 | > 20000
O=C1CCN2CN(C(c3ccccc3)c3ccccc3CN1)n1ccc(=O)c(O)c1C2=O (centres unmarked) [Compound 18, 12-hydroxy-18-phenyl-5,8,9,18-tetrahydro-10,17-methanobenzo[k]pyrido[1,2-b][1,2,5,9]tetraazacyclotridecine-7,11,13(6H)-trione] | 7910 | > 200000
O=C1c2c(O)c(=O)ccn2N2CN1C/C=C\CCOc1ccccc1C2c1ccccc1 (centres unmarked) [Compound 19, (*Z)-15-hydroxy-2-phenyl-12,13,14,16-tetrahydro-11H-4-oxa-1(1,3)-pyrido[2,1-f][1,2,4]triazina-3(1,2)-benzenacyclononaphan-7-ene-14,16-dione] | 260 | > 2000
O=C1c2c(O)c(=O)ccn2N2CN1CCC/C=C\c1cccc3c1[C@H]2c1ccccc1CC3 [Compound 31B, (19bR,Z)-4-hydroxy-8,9,15,19b-tetrahydro-7H,14H-13,12-(epiprop[1]en[1]yl[3]ylidene)-6,20-methanobenzo[3,4]cyclohepta[1,2-1]pyrido[1,2-b][1,2,5]triazacyclotridecine-3,5-dione] | 4 | > 2000
CC[C@@H]1/C=C/COc2ccccc2[C@H](c2ccccc2)N2CN1C(=O)c1c(O)c(=O)ccn12 [Compound 39AA, (9R,18S,E)-9-ethyl-12-hydroxy-18-phenyl-6,9-dihydro-18H-10,17-methanobenzo[b]pyrido[1,2-f][1]oxa[5,6,9]triazacyclotridecine-11,13-dione] | > 1000 | > 2000
CC[C@H]1/C=C/COc2ccccc2[C@H](c2ccccc2)N2CN1C(=O)c1c(O)c(=O)ccn12 [Compound 39AB, (9S,18S,E)-9-ethyl-12-hydroxy-18-phenyl-6,9-dihydro-18H-10,17-methanobenzo[b]pyrido[1,2-f][1]oxa[5,6,9]triazacyclotridecine-11,13-dione] | > 1000 | > 2000
CC[C@@H]1/C=C/COc2ccccc2[C@@H](c2ccccc2)N2CN1C(=O)c1c(O)c(=O)ccn12 [Compound 39BA, (9R,18R,E)-9-ethyl-12-hydroxy-18-phenyl-6,9-dihydro-18H-10,17-methanobenzo[b]pyrido[1,2-f][1]oxa[5,6,9]triazacyclotridecine-11,13-dione] | 6 | > 200
CC[C@H]1/C=C/COc2ccccc2[C@@H](c2ccccc2)N2CN1C(=O)c1c(O)c(=O)ccn12 [Compound 39BB, (9S,18R,E)-9-ethyl-12-hydroxy-18-phenyl-6,9-dihydro-18H-10,17-methanobenzo[b]pyrido[1,2-f][1]oxa[5,6,9]triazacyclotridecine-11,13-dione] | 7 | > 2000
O=C1c2c(O)c(=O)ccn2N2CN1C/C=C/CCc1ccccc1[C@H]2c1ccccn1 [Compound 43A, (17S,E)-4-hydroxy-16-(pyridin-2-yl)-7,10,11,16-tetrahydro-6,17-methanobenzo[k]pyrido[1,2-b][1,2,5]triazacyclotridecine-3,5-dione] | 22 | > 2000
O=C1c2c(O)c(=O)ccn2N2CN1C/C=C/CCc1ccccc1[C@@H]2c1ccccn1 [Compound 43B, (17R,E)-4-hydroxy-16-(pyridin-2-yl)-7,10,11,16-tetrahydro-6,17-methanobenzo[k]pyrido[1,2-b][1,2,5]triazacyclotridecine-3,5-dione] | > 1000 | > 2000
